Data as given in ChEMBL document CHEMBL1155237, “Selective inhibitors of the mutant B-Raf pathway: discovery of a potent and orally bioavailable aminoisoquinoline” (J Med Chem, 2009).

Assays:
[1] = target: Serine/threonine-protein kinase pim-2 (Homo sapiens) (UniProt Q9P1W9); assay: Inhibition of PIM2 assessed as enzyme activity at 1 uM relative to untreated control; parameters: scale not given: the % may be the effect or the level left
[2] = target: Serine/threonine-protein kinase SIK2 (Homo sapiens) (UniProt Q9H0K1); assay: Inhibition of SNF1LK2 assessed as enzyme activity at 1 uM relative to untreated control; parameters: scale not given: the % may be the effect or the level left
[3] = target: MAP kinase-interacting serine/threonine-protein kinase 1 (Homo sapiens) (UniProt Q9BUB5); assay: Inhibition of MKNK1 assessed as enzyme activity at 1 uM relative to untreated control; parameters: scale not given: the % may be the effect or the level left
MAP kinase-interacting serine/threonine-protein kinase 1 (Homo sapiens), sequence (Q9BUB5 whole entry, looked up, the tested form may be a part): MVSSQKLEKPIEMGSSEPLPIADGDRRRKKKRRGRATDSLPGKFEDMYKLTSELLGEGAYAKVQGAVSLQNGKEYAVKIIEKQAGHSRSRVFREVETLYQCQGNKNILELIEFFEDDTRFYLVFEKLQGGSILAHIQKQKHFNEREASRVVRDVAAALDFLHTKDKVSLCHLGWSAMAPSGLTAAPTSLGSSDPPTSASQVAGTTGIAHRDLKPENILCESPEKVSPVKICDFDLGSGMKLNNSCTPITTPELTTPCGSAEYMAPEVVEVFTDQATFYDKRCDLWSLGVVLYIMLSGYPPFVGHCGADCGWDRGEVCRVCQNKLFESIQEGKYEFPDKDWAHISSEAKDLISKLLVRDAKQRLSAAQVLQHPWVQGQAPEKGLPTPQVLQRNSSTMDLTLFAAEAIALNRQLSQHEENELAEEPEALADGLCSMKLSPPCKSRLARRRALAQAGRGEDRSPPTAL

[4] = target: Ribosomal protein S6 kinase alpha-2 (Homo sapiens) (UniProt Q15349); assay: Inhibition of RPS6KA2 kinase domain 1 assessed as enzyme activity at 1 uM relative to untreated control; parameters: scale not given: the % may be the effect or the level left
Ribosomal protein S6 kinase alpha-2 (Homo sapiens), sequence (Q15349 whole entry, the tested form may be a part): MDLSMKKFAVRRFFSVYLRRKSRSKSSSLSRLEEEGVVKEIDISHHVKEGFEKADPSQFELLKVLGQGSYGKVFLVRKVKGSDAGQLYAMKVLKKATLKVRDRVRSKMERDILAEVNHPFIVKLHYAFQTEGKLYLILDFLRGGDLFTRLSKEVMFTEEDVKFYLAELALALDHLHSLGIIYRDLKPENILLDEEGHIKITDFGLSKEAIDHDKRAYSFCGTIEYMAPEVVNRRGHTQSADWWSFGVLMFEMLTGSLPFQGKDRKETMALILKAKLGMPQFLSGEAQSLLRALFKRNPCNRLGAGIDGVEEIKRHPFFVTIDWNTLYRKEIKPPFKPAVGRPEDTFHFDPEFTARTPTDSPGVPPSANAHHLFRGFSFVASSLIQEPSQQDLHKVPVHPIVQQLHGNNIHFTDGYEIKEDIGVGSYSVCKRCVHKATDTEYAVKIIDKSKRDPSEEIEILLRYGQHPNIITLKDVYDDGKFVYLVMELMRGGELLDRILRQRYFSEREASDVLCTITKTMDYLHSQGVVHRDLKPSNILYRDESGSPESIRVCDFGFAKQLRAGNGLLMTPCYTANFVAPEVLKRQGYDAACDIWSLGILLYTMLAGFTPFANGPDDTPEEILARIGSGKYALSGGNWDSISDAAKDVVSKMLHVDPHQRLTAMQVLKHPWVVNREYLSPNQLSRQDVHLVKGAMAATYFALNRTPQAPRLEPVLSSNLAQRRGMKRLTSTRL

[5] = target: Serine/threonine-protein kinase 35 (Homo sapiens) (UniProt Q8TDR2); assay: Inhibition of STK35 assessed as enzyme activity at 1 uM relative to untreated control; parameters: scale not given: the % may be the effect or the level left
Serine/threonine-protein kinase 35 (Homo sapiens), sequence (Q8TDR2 whole entry): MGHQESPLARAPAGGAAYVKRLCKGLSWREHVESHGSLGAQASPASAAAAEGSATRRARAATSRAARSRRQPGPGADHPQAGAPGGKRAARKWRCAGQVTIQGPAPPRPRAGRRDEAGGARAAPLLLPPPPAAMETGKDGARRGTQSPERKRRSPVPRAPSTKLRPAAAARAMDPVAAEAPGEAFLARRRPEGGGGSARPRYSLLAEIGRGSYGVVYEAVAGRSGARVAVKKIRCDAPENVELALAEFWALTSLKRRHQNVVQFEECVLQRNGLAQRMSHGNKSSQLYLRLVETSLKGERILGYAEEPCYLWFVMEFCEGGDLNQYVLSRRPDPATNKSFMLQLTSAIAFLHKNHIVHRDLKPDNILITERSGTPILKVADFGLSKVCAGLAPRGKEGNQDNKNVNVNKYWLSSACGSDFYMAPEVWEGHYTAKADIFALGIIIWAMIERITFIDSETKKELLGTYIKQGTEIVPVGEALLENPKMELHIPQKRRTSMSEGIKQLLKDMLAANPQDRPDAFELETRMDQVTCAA

[6] = target: Tyrosine-protein kinase CSK (Homo sapiens) (UniProt P41240); assay: Inhibition of CSK assessed as enzyme activity at 1 uM relative to untreated control; parameters: scale not given: the % may be the effect or the level left
Tyrosine-protein kinase CSK (Homo sapiens), sequence (P41240 2-450 limits assumed): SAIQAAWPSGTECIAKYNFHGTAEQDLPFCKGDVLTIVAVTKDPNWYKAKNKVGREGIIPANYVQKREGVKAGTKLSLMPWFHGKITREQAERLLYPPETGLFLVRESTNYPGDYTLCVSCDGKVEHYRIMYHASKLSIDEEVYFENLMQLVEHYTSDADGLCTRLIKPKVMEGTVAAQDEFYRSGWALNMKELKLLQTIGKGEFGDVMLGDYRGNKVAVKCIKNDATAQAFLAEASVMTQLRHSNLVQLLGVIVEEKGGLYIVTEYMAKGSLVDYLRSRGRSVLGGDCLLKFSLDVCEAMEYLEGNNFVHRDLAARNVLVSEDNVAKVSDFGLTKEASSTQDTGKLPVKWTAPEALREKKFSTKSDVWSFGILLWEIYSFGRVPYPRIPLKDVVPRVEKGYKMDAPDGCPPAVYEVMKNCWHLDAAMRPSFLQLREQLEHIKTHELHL

[7] = target: Cyclin-G-associated kinase (Homo sapiens) (UniProt O14976); assay: Inhibition of GAK assessed as enzyme activity at 1 uM relative to untreated control; parameters: scale not given: the % may be the effect or the level left
[8] = target: Ribosomal protein S6 kinase alpha-1 (Homo sapiens) (UniProt Q15418); assay: Inhibition of RPS6KA1 kinase domain 1 assessed as enzyme activity at 1 uM relative to untreated control; parameters: scale not given: the % may be the effect or the level left
Ribosomal protein S6 kinase alpha-1 (Homo sapiens), sequence (Q15418 whole entry, the tested form may be a part): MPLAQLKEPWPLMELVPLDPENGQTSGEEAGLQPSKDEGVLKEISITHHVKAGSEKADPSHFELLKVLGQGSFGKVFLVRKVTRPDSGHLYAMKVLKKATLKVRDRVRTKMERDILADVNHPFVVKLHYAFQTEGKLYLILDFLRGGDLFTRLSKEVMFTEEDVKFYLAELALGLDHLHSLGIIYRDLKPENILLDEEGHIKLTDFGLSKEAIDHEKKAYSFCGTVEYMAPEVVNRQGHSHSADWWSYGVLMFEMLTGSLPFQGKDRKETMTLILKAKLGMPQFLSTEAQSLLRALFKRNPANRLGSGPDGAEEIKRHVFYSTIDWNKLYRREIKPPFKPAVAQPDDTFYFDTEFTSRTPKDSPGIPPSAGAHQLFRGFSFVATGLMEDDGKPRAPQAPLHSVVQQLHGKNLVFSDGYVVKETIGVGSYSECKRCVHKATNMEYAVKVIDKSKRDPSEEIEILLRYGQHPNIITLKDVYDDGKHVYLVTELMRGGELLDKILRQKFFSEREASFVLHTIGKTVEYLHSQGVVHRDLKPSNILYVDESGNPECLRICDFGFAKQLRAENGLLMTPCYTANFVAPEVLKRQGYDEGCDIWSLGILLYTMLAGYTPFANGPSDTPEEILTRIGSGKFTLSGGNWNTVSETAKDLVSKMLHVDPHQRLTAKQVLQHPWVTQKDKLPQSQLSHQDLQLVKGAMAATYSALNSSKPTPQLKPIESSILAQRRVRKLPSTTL

[9] = target: Insulin receptor (Homo sapiens) (UniProt P06213); assay: Inhibition of INSR assessed as enzyme activity at 1 uM relative to untreated control; parameters: scale not given: the % may be the effect or the level left
[10] = target: Hepatocyte growth factor receptor (Homo sapiens) (UniProt P08581); assay: Inhibition of MET assessed as enzyme activity at 1 uM relative to untreated control; parameters: scale not given: the % may be the effect or the level left
Hepatocyte growth factor receptor (Homo sapiens), sequence (P08581 whole entry): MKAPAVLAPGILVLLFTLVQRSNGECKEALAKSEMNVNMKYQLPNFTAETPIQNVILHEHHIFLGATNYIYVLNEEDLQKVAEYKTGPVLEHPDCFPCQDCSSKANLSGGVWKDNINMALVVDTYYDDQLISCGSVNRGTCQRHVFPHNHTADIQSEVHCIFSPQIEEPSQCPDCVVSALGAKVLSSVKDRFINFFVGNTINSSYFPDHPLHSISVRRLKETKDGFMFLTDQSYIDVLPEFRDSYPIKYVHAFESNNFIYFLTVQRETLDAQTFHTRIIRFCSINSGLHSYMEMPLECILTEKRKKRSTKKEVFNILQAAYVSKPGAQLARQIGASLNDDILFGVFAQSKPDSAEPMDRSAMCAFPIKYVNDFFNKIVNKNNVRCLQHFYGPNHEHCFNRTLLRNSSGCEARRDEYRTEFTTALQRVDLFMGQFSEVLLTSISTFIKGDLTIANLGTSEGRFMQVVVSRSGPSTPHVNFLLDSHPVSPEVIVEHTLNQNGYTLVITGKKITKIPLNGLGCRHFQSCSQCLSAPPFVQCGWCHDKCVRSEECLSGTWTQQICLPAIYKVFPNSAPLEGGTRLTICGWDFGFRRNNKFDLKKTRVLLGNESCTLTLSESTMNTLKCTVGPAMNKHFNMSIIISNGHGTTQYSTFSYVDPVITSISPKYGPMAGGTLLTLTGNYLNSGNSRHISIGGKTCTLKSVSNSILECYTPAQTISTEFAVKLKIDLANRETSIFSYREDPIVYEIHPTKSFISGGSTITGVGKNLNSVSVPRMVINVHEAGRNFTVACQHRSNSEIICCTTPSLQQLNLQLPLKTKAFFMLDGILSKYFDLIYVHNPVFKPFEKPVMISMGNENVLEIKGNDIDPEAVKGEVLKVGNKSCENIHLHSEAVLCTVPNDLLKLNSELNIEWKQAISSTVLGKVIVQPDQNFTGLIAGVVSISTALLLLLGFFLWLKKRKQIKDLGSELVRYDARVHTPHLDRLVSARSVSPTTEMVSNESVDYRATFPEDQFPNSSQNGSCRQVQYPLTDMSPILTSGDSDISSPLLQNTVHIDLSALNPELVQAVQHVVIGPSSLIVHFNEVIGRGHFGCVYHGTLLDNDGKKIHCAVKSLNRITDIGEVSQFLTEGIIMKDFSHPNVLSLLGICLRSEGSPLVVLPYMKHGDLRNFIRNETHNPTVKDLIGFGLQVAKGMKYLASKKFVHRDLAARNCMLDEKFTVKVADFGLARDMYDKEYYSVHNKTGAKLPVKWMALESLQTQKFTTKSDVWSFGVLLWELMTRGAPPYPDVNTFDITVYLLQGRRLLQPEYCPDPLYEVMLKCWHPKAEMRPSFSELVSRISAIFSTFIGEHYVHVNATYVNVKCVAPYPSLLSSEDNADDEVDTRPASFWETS

[11] = target: Tyrosine-protein kinase FRK (Homo sapiens) (UniProt P42685); assay: Inhibition of FRK assessed as enzyme activity at 1 uM relative to untreated control; parameters: scale not given: the % may be the effect or the level left
[12] = Volume of distribution at steady state in Sprague-Dawley rat at 2 mg/kg, iv and 5 mg/kg, po; assay type: ADME, organism-based; conditions: in vivo, read-out: Vdss
[13] = target: Tyrosine-protein kinase Blk (Homo sapiens) (UniProt P51451); assay: Inhibition of BLK assessed as enzyme activity at 1 uM relative to untreated control; parameters: scale not given: the % may be the effect or the level left
[14] = target: Protein kinase C theta type (Homo sapiens) (UniProt Q04759); assay: Inhibition of PRKCQ assessed as enzyme activity at 1 uM relative to untreated control; parameters: scale not given: the % may be the effect or the level left

Serine/threonine-protein kinase pim-2 (Homo sapiens), sequence (Q9P1W9 whole entry, looked up): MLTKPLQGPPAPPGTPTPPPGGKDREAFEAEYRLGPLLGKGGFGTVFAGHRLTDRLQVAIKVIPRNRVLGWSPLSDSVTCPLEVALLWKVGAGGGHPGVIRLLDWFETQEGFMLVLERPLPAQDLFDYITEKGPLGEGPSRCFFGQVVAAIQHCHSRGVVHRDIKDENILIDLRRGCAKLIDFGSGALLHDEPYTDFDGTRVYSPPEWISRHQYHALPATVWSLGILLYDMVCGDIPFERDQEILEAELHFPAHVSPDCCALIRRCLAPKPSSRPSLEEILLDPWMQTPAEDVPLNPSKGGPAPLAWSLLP

In the case of `Cc1ccc2c(Nc3ccc(Cl)cc3)nccc2c1Nc1ncccc1-c1ncnc2[nH]cnc12.Cl.Cl.Cl`, the Activity [1] is reported as 100%, the Activity [2] is reported as 100% and the Activity [3] is reported as 100%. It also gave an Activity [4] of 100%, an Activity [5] of 92% and an Activity [6] of 100%. For the same compound, the Activity [7] was 92%, the Activity [8] was 94% and the Activity [9] was 86%. The Activity [10] was 73%, the Activity [11] was 17% and the Vd [12] was 1.9 L/kg. It also gave an Activity [13] of 75% and an Activity [14] of 100%.
